How the values were obtained:
[1] = 26-week clinical trial in adult patients with T2D: gastrointestinal adverse events incl. nausea; assay type: in vivo, human; settings: on-treatment
Experimental: A 26-week, randomized, double-blind clinical trial was carried out with adult patients with T2D, HbA1c 7.0-10.0% (53-86 mmol/mol), and body mass index 24.0-40.0 kg/m^2 who were treated with diet and exercise±metformin. […] The primary endpoint was change in HbA1c from baseline to week 26. Key exclusion criteria were a history of chronic or idiopathic acute pancreatitis and moderate-to-severe renal impairment (estimated glomerular filtration rate <60 mL/min/1.73 m^2).
Trial drug administration: Following a 2-week screening period, patients received trial medication for 26 weeks, followed by a 7-week follow-up period. […] The trial was double blinded within (but not between) each dose level of semaglutide, liraglutide and placebo, as treatment was volume matched.

[2] = 52-week clinical trial in obese subjects without diabetes mellitus: gastrointestinal adverse events; assay type: in vivo, human; settings: Lira 3.0 mg once daily s.c., on-treatment
Experimental: This trial was designed as a 52-week, randomised, double-blind, placebo-controlled, sixteen-armed, parallel group, multi-centre, multinational trial comparing once-daily subcutaneous administration of semaglutide in five different doses (ranging from 0.05 mg/day to 0.4 mg/day) with placebo in obese subjects without diabetes mellitus. […] The trial was double-blinded between active and placebo treatment. To ensure a sufficiently large sample of men, no more than 70% of the trial population was allowed to be women and the randomisation was stratified according to sex. Subjects were randomised in a balanced manner (6:1 active:placebo).
The primary endpoint was relative change from baseline in body weight (%) at 52 weeks. Key secondary endpoints included proportion of subjects with weight loss of ≥5% or ≥10% of baseline body weight at 52 weeks as well as change in body weight from baseline to 52 weeks. Supportive secondary safety endpoints also included gastrointestinal (GI) adverse events (i.e. nausea, vomiting, diarrhoea and constipation). During each site visit the individual subject was asked via open questions if they had experienced any medical problems since the last visit. All medical problems either observed by the site staff or the subject was reported as an adverse event and evaluated for severity and causality by the investigator. For this trial the subjects had site visits every 2 weeks for the first 20 weeks of the trial and afterwards site visits was performed every 4 weeks.
Subjects in all treatment arms including placebo received nutritional counselling and a calorie-reduced diet by a dietician or equivalent qualified delegate as well as physical activity counselling by a qualified person on a monthly basis beginning at the randomisation visit. The trial population consisted of a total of 957 subjects were randomised. A total of 777 subjects (81.2%) completed 52 weeks of treatment; 180 (18.8%) discontinued treatment prematurely with no obvious dose-dependent trend. Key inclusion criteria for this trial were: Male or female, age ≥18 years at the time of signing inform consent; body mass index (BMI)≥30.0 kg/m2 at the screening visit; and at least one unsuccessful weight loss attempt per investigator judgement. Key exclusion criteria for this trial were: A HbA1c≥6.5% at screening or diagnosed with type 1 or type 2 diabetes mellitus; Treatment with glucose lowering agent(s) within 90 days before screening; Screening calcitonin ≥50 ng/L (pg/mL); Personal or family history of medullary thyroid carcinoma or multiple endocrine neoplasia syndrome type 2; History of pancreatitis (acute or chronic); Obesity induced by endocrine disorders (e.g. Cushing Syndrome); Treatment with any medication within 90 days before screening that based on investigator's judgement may cause significant weight change; Previous surgical treatment for obesity (liposuction and/or abdominoplasty performed >1 year before screening is allowed); History of major depressive disorder within 2 years before randomisation; Any lifetime history of a suicidal attempt; and Female who is pregnant, breast-feeding or intends to become pregnant or is of childbearing potential and not using an adequate contraceptive method (adequate contraceptive measures as required by local regulation or practice).

[3] = Lira 0.3 mg once daily s.c., N 64
[4] = Lira 0.6 mg once daily s.c., N 64
[5] = Lira 1.2 mg once daily s.c., N 64
[6] = Lira 1.8 mg once daily s.c., N 65

CCCCCCCCCCCCCCCC(=O)N[C@@H](CCC(=O)NCCCC[C@H](NC(=O)[C@H](C)NC(=O)[C@H](C)NC(=O)[C@H](CCC(N)=O)NC(=O)CNC(=O)[C@H](CCC(=O)O)NC(=O)[C@H](CC(C)C)NC(=O)[C@H](Cc1ccc(O)cc1)NC(=O)[C@H](CO)NC(=O)[C@H](CO)NC(=O)[C@@H](NC(=O)[C@H](CC(=O)O)NC(=O)[C@H](CO)NC(=O)[C@@H](NC(=O)[C@H](Cc1ccccc1)NC(=O)[C@@H](NC(=O)CNC(=O)[C@H](CCC(=O)O)NC(=O)[C@H](C)NC(=O)[C@@H](N)Cc1cnc[nH]1)[C@@H](C)O)[C@@H](C)O)C(C)C)C(=O)N[C@@H](CCC(=O)O)C(=O)N[C@@H](Cc1ccccc1)C(=O)N[C@H](C(=O)N[C@@H](C)C(=O)N[C@@H](Cc1c[nH]c2ccccc12)C(=O)N[C@@H](CC(C)C)C(=O)N[C@H](C(=O)N[C@@H](CCCNC(=N)N)C(=O)NCC(=O)N[C@@H](CCCNC(=N)N)C(=O)NCC(=O)O)C(C)C)[C@@H](C)CC)C(=O)O [Lira, liraglutide, reference compound]
Gastrointestinal adverse events, % (percentage of patients experiencing at least one event) ([1]; Lira 0.3 mg once daily s.c.): 21.9%
Gastrointestinal adverse events, E (number of events) ([1]; Lira 0.3 mg once daily s.c.): 25
Nausea, % (percentage of patients experiencing at least one event) ([1]; Lira 0.3 mg once daily s.c.): 9.4%
Nausea, E (number of events) ([1]; Lira 0.3 mg once daily s.c.): 7
Gastrointestinal adverse events, Ne (number of patients experiencing at least one event) [1, 3]: 14
Nausea, Ne (number of patients experiencing at least one event) [1, 3]: 6
Gastrointestinal adverse events, % (percentage of patients experiencing at least one event) ([1]; Lira 0.6 mg once daily s.c.): 29.7%
Gastrointestinal adverse events, E (number of events) ([1]; Lira 0.6 mg once daily s.c.): 62
Nausea, % (percentage of patients experiencing at least one event) ([1]; Lira 0.6 mg once daily s.c.): 10.9%
Nausea, E (number of events) ([1]; Lira 0.6 mg once daily s.c.): 11
Gastrointestinal adverse events, Ne (number of patients experiencing at least one event) [1, 4]: 19
Nausea, Ne (number of patients experiencing at least one event) [1, 4]: 7
Gastrointestinal adverse events, % (percentage of patients experiencing at least one event) ([1]; Lira 1.2 mg once daily s.c.): 31.3%
Gastrointestinal adverse events, E (number of events) ([1]; Lira 1.2 mg once daily s.c.): 40
Nausea, % (percentage of patients experiencing at least one event) ([1]; Lira 1.2 mg once daily s.c.): 10.9%
Nausea, E (number of events) ([1]; Lira 1.2 mg once daily s.c.): 11
Gastrointestinal adverse events, Ne (number of patients experiencing at least one event) [1, 5]: 20
Nausea, Ne (number of patients experiencing at least one event) [1, 5]: 7
Gastrointestinal adverse events, % (percentage of patients experiencing at least one event) ([1]; Lira 1.8 mg once daily s.c.): 41.5%
Gastrointestinal adverse events, E (number of events) ([1]; Lira 1.8 mg once daily s.c.): 81
Nausea, % (percentage of patients experiencing at least one event) ([1]; Lira 1.8 mg once daily s.c.): 20.0%
Nausea, E (number of events) ([1]; Lira 1.8 mg once daily s.c.): 18
Gastrointestinal adverse events, Ne (number of patients experiencing at least one event) [1, 6]: 27
Nausea, Ne (number of patients experiencing at least one event) [1, 6]: 13
Gastrointestinal adverse events, Observed data, % (percentage of subjects with at least one event) [2]: 74.8%
Nausea, % (percentage of subjects experiencing at least one event) ([2]; observed data): 44.7%
Nausea, E (number of events) ([2]; observed data): 89
Nausea, Ne (number of subjects experiencing at least one event) ([2]; observed data, N 103): 46
Gastrointestinal adverse events, Observed data, Ne (number of subjects experiencing at least one event) ([2]; N 103): 77
